Three molecules from patent publication US20260234178A1, “PYRANOSIDE COMPOUNDS AND METHODS” (JAMES COOK UNIVERSITY, priority 2022, published 2026) can be followed below.

Holding throughout (type): cell-based
Test [1] concerns IFN-γ. Kind of test: Cytokine suppression assay, anti-CD3/anti-CD28 (Dynabead)-stimulated PBMC: IFN-γ release. The conditions noted are these: 10 μg/mL; anti-CD3/anti-CD28-stimulated human PBMC; 20 h.
From the text: (§1) PBMCs from four healthy donors were isolated from buffy coats using Lymphoprep™ density gradient medium ([sequence] Technologies, Vancouver, Canada), according to the manufacturer's instructions. Isolated cells were cryopreserved in 90% heat-inactivated foetal calf serum (FCS) (Bovogen Biologicals) with 10% dimethyl sulfoxide (DMSO; Sigma-Aldrich, St. Louis, MO, USA) using vapour phase nitrogen until required. On the day of the experiment, PBMCs were thawed and removed from the freezing medium by washing with 9 mL pre-warmed culture medium and centrifugation at 300×g for 5 min. […] Thawed PBMCs were counted using a CASY cell counter (Roche Innovatis, Germany), and cell densities were adjusted to seed 100,000 cells/well into 96-well plates in a final volume of 100 μL culture medium.
(§2) For our cytokine suppression assays, inflammatory cytokines (IFN-γ, IL-17A, IL-8, and TNF) were induced in two ways. […] On the day of the experiment, cytokine concentrations were determined using a standard LEGENDplex™ human inflammation panel 1 (BioLegend®), LSRFortessa (BD), and LEGENDplex™ software (version 2022-02-10, Qognit, Inc.).
Test [2] relates to IL-17A. Kind of test: Cytokine suppression assay, P/I-stimulated PBMC: IL-17A release. The conditions noted are these: 10 μg/mL; P/I-stimulated human PBMC; 20 h treatment; relative to stimulated control.
From the text: as §1, §2
A further test has as its system IL-8. Kind of test: Cytokine suppression assay, anti-CD3/anti-CD28 (Dynabead)-stimulated PBMC: IL-8 release. The conditions noted are these: 10 μg/mL; anti-CD3/anti-CD28-stimulated human PBMC; 20 h.
Test [3] deals with IL-17A. Kind of test: Cytokine suppression assay, anti-CD3/anti-CD28 (Dynabead)-stimulated PBMC: IL-17A release. Conditions: 10 μg/mL; anti-CD3/anti-CD28-stimulated human PBMC; 20 h.
From the text: (§3) PBMCs from four healthy donors were isolated from buffy coats using Lymphoprep™ density gradient medium ([sequence] Technologies, Vancouver, Canada), according to the manufacturer's instructions. Isolated cells were cryopreserved in 90% heat-inactivated foetal calf serum (FCS) (Bovogen Biologicals) with 10% dimethyl sulfoxide (DMSO; Sigma-Aldrich, St. Louis, MO, USA) using vapour phase nitrogen until required. On the day of the experiment, PBMCs were thawed and removed from the freezing medium by washing with 9 mL pre-warmed culture medium and centrifugation at 300×g for 5 min. An R10 culture medium of RPMI-1640 media without L-glutamine (Gibco Thermo Fisher Scientific, Waltham, MA, USA), supplemented with 10% heat-inactivated foetal bovine serum (FBS; Bovogen Biologicals, Christchurch, New Zealand), 10,000 units/mL of penicillin+10,000 μg/mL of streptomycin (Thermo Fisher Scientific), and 1× GlutaMAX (Thermo Fisher Scientific) was used for all experiments. […] After incubation, the enzyme was removed by two additional washes with R10. Thawed PBMCs were counted using a CASY cell counter (Roche Innovatis, Germany), and cell densities were adjusted to seed 100,000 cells/well into 96-well plates in a final volume of 100 μL culture medium.
(§4) For our cytokine suppression assays, inflammatory cytokines (IFN-γ, IL-17A, IL-8, and TNF) were induced in two ways. First, the PBMCs from three donors were activated with a cell stimulation cocktail of 50 ng/mL phorbol 12-myristate 13-acetate and 1 μg/mL ionomycin (P/I; eBioscience). P/1-stimulated cells were treated with 10 μg/mL of U. metrosideros compounds, PCE, CsA (Sigma-Aldrich), or remained untreated. Second, the PBMCs from four donors were cultured in the presence of Dynabeads Human T-Activator CD3/CD28 (Gibco) at a cell-to-bead ratio of 1:1. […] On the day of the experiment, cytokine concentrations were determined using a standard LEGENDplex™ human inflammation panel 1 (BioLegend®), LSRFortessa (BD), and LEGENDplex™ software (version 2022-02-10, Qognit, Inc.).
For test [4], the system named is IFN-γ. Kind of test: Cytokine suppression assay, P/I-stimulated PBMC: IFN-γ release. Conditions: 10 μg/mL; P/I-stimulated human PBMC; 20 h treatment; relative to stimulated control.
From the text: as §3, §4

From the text for IL-8: as §1, §2

`CC1=CC[C@@H](C(C)(C)O[C@@H]2O[C@H](COC(=O)c3cc(O)c(O)c(O)c3)[C@@H](O)[C@H](O)[C@H]2O)CC1` [Compound 5, (4S)-α-terpineol 8-O-β-D-(6-O-galloyl)glucopyranoside]: the “suppression of Dynabead-induced IFN-γ secretion” value in the test with IFN-γ [1] is reported as 59.3%. In the test on IL-17A [2], the “reduction of IL-17A levels” value stood at 60.9%. Moreover, the “inhibition of IL-8 release” value with IL-8 is 24.3%. The “suppression of Dynabead-induced IL-17A secretion” value with IL-17A [3] is recorded as 53.7%. In addition, in the test with IFN-γ [4], the “suppression of IFN-γ secretion” value is given as 79.6%.
In the case of galloyl-lawsoniaside A [Compound 4], the “suppression of Dynabead-induced IFN-γ secretion” value in the test with IFN-γ [1] came out at 78.5%. The “reduction of IL-17A levels” value in the test with IL-17A [2] amounted to 79.1%. In addition, in the test on IL-8, the “inhibition of IL-8 release” value is given as 40.5%. Further, in the test on IL-17A [3], the “suppression of Dynabead-induced IL-17A secretion” value came out at 80.9%. Further, the “suppression of IFN-γ secretion” value in the test on IFN-γ [4] came out at 95.3%.
For `CC1=CC(=O)CC(C)(C)[C@@]1(O)/C=C/[C@@H](C)O[C@@H]1O[C@H](CO)[C@@H](O)[C@H](O)[C@H]1O` [Compound 3, (6S,9R)-roseoside], the “suppression of Dynabead-induced IL-17A secretion” value with IL-17A [3] is 38.2%. For the same molecule, in the test on IFN-γ [4], the “suppression of IFN-γ secretion” value was found to be 64.4%.
